A short description of the series: solvent given as SMILES.
The mark [1] stands for this setting: in O=P(c1ccccc1)(c1ccccc1)c1ccc2oc3ccc(P(=O)(c4ccccc4)c4ccccc4)cc3c2c1.

Structures are written as SMILES.

The results in this text go back to the Deep4Chem optical property database.

In the case of `O=Cc1ccc2ccc3cccc4ccc1c2c34`, the fluorescence lifetime runs as follows: (in C1CCOC1) 127 ns; (in CC#N) 8.76 ns; (in CCCCCC) 7.43 ns; (in CCO) 6.44 ns; (in CN(C)C=O) 64.8 ns; (in CO) 0.953 ns. Also, the fluorescence lifetime runs as follows: (in Cc1ccccc1) 15.3 ns; (in ClCCl) 3.45 ns.

The compound `[NH3+]C1(c2ccc3cc(O)ccc3c2)C2CC3CC(C2)CC1C3` (configuration not stated) returned a fluorescence lifetime (in CC#N) of 10.3 ns.

For `Cn1c(/C=C/c2ccc(/C=C/c3nc4ccccc4[nH]3)cc2)[n+](C)c2ccccc21`, the fluorescence lifetime was 1.43 ns (in C1CCOC1); 1.16 ns (in CC#N); 1.15 ns (in CC(C)=O); 1.11 ns (in CN(C)C=O); 0.773 ns (in CO); 1.22 ns (in CS(C)=O). The compound further registered a fluorescence lifetime (in O) of 0.42 ns.

As to `CCN(CC)c1ccc(C=Cc2nc3nc4ccccc4nc3s2)c(OC)c1`, the fluorescence lifetime was 0.977 ns (in CCCCCCC(C)O); 0.96 ns (in CCOC(C)=O); 0.04 ns (in CO); 0.41 ns (in CS(C)=O); 0.27 ns (in Cc1ccccc1); 0.97 ns (in ClC(Cl)Cl). For the setting “in ClCCl”, the fluorescence lifetime amounted to 1.29 ns.

Take `COc1ccc(/C=C/C2=CC(/C=C/c3ccc(OC)c4ccccc34)=[O+][B-](F)(F)O2)c2ccccc12`: the fluorescence lifetime runs as follows: (in CC#N) 0.65 ns; (in CC(C)=O) 1.03 ns; (in CCOC(C)=O) 1.51 ns; (in CCOCC) 1.34 ns; (in ClC(Cl)(Cl)Cl) 1.18 ns; (in ClCCl) 1.96 ns.

Turning to `Nc1ccc2c(c1)C(=O)c1ccc(N)cc1C2=O`, the fluorescence lifetime runs as follows: (in CC#N) 1.85 ns; (in CC(C)O) 0.6 ns; (in CCO) 0.47 ns; (in CCOC(C)=O) 2.01 ns; (in CO) 0.34 ns.

Turning to `Cc1cc(C)c(-c2c3ccccc3c3ccc4cc5c(-c6c(C)cc(C)cc6C)c6ccccc6c6ccc7cc2c3c4c7c56)c(C)c1`, the fluorescence lifetime (in ClCCl) turned out to be 11.5 ns.

Regarding `CCOC(=O)CCCCCn1c2ccc(N)cc2c(=O)c2cc3c(cc21)c(=O)c1cc(N)ccc1n3CCCCCC(=O)OCC`, the fluorescence lifetime (in ClCCl) worked out at 15.6 ns.

On to `c1ccc(-c2nc(-c3ccccc3)c(-c3ccccc3)o2)cc1`, for which the fluorescence lifetime (in Cc1ccccc1) came out at 1.27 ns.

Take `c1ccc(-c2cc(-c3nnc(-c4ccc(N5c6ccccc6Oc6ccccc65)cc4)o3)c(-c3ccccc3)c(-c3ccccc3)c2-c2ccccc2)cc1`: where the note is “in c1ccc(-n2c(-c3c(-n4c5ccccc5c5ccccc54)cccc3-n3c4ccccc4c4ccccc43)nc3ccccc32)cc1”, the fluorescence lifetime was determined as 4.1 ns.

The compound `CCCCCCN1C(=O)c2cccc3cc(/N=C\c4ccc(N(c5ccccc5)c5ccccc5)cc4)cc(c23)C1=O` gave a fluorescence lifetime (in ClC(Cl)Cl) of 15.4 ns.

As to `CN(C)c1ccc(C#Cc2ccc(-c3nc(C#N)c(C#N)n3C)cc2)cc1`, the fluorescence lifetime runs as follows: (in C1CCCCC1) 1.2 ns; (in ClC(Cl)Cl) 1.7 ns.

Take `CC1(C)c2ccccc2N(c2ccc(-c3ncccn3)cc2)c2ccccc21`: the fluorescence lifetime under setting [1] was determined as 11 ns.

The compound `N#Cc1ccc(-n2c(-c3ccc(-c4ccc(N(c5ccccc5)c5ccccc5)cc4)s3)nc3c4ccccc4c4ccccc4c32)c2ccccc12` registered a fluorescence lifetime (in ClCCl) of 5.4 ns.

With `N=c1oc2cccc3c4c(-c5ccccc5)oc5cccc(c(c1-c1ccccc1)c23)c54`, the fluorescence lifetime (in ClC(Cl)Cl) turned out to be 2.6 ns.

On to `C(=C\c1ccc(N(c2ccc(/C=C/c3ccc(N(c4ccccc4)c4ccccc4)cc3)cc2)c2ccc(/C=C/c3ccc(/C=C/c4ccc(N(c5ccc(/C=C/c6ccc(N(c7ccccc7)c7ccccc7)cc6)cc5)c5ccc(/C=C/c6ccc(N(c7ccccc7)c7ccccc7)cc6)cc5)cc4)c4nsnc34)cc2)cc1)/c1ccc(N(c2ccccc2)c2ccccc2)cc1`, for which the fluorescence lifetime reads like this: (in C1CCOC1) 1.83 ns; (in CCOC(C)=O) 1.85 ns; (in Cc1ccccc1) 3.61 ns; (in ClC(Cl)Cl) 2.08 ns; (in ClCCl) 1.86 ns.

With `C(#Cc1ccc(-n2c3ccccc3c3ccccc32)cc1)c1ccccc1`, the fluorescence lifetime is, setting by setting: (in CC#N) 4.36 ns; (in CCCCC) 2.6 ns; (in CO) 3.7 ns; (in Cc1ccccc1) 1.45 ns; (in ClC(Cl)Cl) 1.59 ns; (in ClCCl) 2.53 ns.

In the case of `Fc1cccc(-[c+]2c3ccccc3sc3ccccc32)c1`, where the note is “in CC#N”, the fluorescence lifetime came to 1.3 ns.

As to `N#Cc1ccc(/C=C/c2c3ccccc3cc3ccccc23)cc1`, the fluorescence lifetime was 0.82 ns (in C1CCOC1); 3.01 ns (in CC1CCCCC1); 0.68 ns (in CC#N); 0.6 ns (in CO); 2.12 ns (in Cc1ccccc1); 0.82 ns (in ClC(Cl)Cl).

Where the note is “in ClCCl”, `COc1ccc(-c2cc3c(s2)c(C)cc(=O)n3C)cc1` returned a fluorescence lifetime of 0.63 ns.

Take `COc1ccc2c(-c3nc(-c4cccc(Br)c4)no3)cc(=O)oc2c1`: the fluorescence lifetime (in ClC(Cl)Cl) amounted to 6.8 ns.

For `c1ccc2c(c1)ccc1ccc3ccc4ccccc4c3c12`, the fluorescence lifetime (in ClC(Cl)Cl) came out at 26 ns.

With `Cc1cc2cc3ccccc3cc2cn1`, the fluorescence lifetime (in CCO) was determined as 18.7 ns.

For `Nc1ccc2c(-c3ccc(C(=O)CN4C(=O)CCC4=O)cc3C(=O)[O-])c3ccc(=[NH2+])c(S(=O)(=O)[O-])c-3oc2c1S(=O)(=O)[O-]`, the fluorescence lifetime (in O) is 4.1 ns.

For the setting “in ClC(Cl)Cl”, `Fc1cccc(C2=Cc3ccc4ccccc4[n+]3[B-](F)(F)O2)c1` gave a fluorescence lifetime of 1.11 ns.

For the compound `O=c1oc2ccccc2cc1/C=C/c1ccc([N+](=O)[O-])cc1`, the fluorescence lifetime (in CC#N) stood at 0.08 ns.

In the case of `O=C1NC(=O)c2ccc(N3CCCCC3)c3cccc1c23`, the fluorescence lifetime runs as follows: (in C1CCOC1) 7.02 ns; (in ClC(Cl)Cl) 8.86 ns; (in ClCCl) 7.02 ns.

For `O=C([O-])c1cc2c(ccc3ccccc32)oc1=O`, for the setting “in O”, the fluorescence lifetime worked out at 12.8 ns.

For the compound `O=c1[nH]cc(F)c(=O)[nH]1`, the fluorescence lifetime (in CC#N) is 0.0004 ns.

For the setting “in ClCCl”, `CCOC(=O)COc1ccc(/C=C/c2cc(C)c3n2[B-](F)(F)[N+]2=C(c4[nH]c(C)cc4C)c4ccccc4C2=C3)cc1` yielded a fluorescence lifetime of 5.14 ns.

The compound `c1ccc(-c2nc(-c3ccc(N4c5ccccc5C(c5ccccc5)(c5ccccc5)c5ccccc54)cc3)cc(-c3ccc(N4c5ccccc5C(c5ccccc5)(c5ccccc5)c5ccccc54)cc3)n2)cc1` showed a fluorescence lifetime under setting [1] of 11 ns.

On to `CCC1(CC)c2ccccc2-c2c1c1c(c3c2C(CC)(CC)c2cc(-c4cccs4)ccc2-3)C(CC)(CC)c2cc(N(c3ccccc3)c3ccccc3)ccc2-1`, for which, for the setting “in C1CCOC1”, the fluorescence lifetime stood at 1.7 ns.

In turn, `Cc1c(C(=O)c2ccc(C(F)(F)F)cc2)c2ccc3cccc4c5cccc6ccc1c(c65)c2c34` returned a fluorescence lifetime (in ClCCl) of 1.39 ns.

The compound `Cc1nnc(-c2cc(-c3nnc(C)o3)c(-n3c4ccccc4c4ccccc43)cc2-n2c3ccccc3c3ccccc32)o1` registered a fluorescence lifetime (in Cc1ccccc1) of 6.5 ns and a fluorescence lifetime (in O=P(c1ccccc1)(c1ccccc1)c1ccccc1Oc1ccccc1P(=O)(c1ccccc1)c1ccccc1) of 8.5 ns.

`CCOC(=O)CN1C(=O)C2=C(c3ccc(N4CCCCC4)cc3)N(CC(=O)OCC)C(=O)C2=C1c1ccc(C#N)cc1` had a fluorescence lifetime (in CC#N) of 3.57 ns, a fluorescence lifetime (in CS(C)=O) of 3.72 ns and a fluorescence lifetime (in Cc1ccccc1) of 4.41 ns.

On to `N#Cc1ncc(-c2c3ccccc3c(-c3cnc(C#N)nc3)c3ccccc23)cn1`, for which the fluorescence lifetime amounted to 1.8 ns (in CCO) and 5.8 ns (in ClCCl).

Turning to `Cc1cc2c(ccc3c[n+](C)c(C)cc32)c[n+]1C`, the fluorescence lifetime (in CC#N) was found to be 6.1 ns.

As for `CC1(C)CC(NCc2ccc3ccc4cccc5ccc2c3c45)CC(C)(C)N1`, the fluorescence lifetime by setting is: (in C1CCCCC1) 61.8 ns; (in CC#N) 26.2 ns; (in CO) 41.9 ns; (in ClC(Cl)Cl) 36.1 ns.

On to `CCOC(=O)c1ccc2nc(/N=N/c3ccc(N(CC)CC)cc3)sc2c1`, for which the fluorescence lifetime is, setting by setting: (in CC#N) 5.59 ns; (in ClCCl) 5.33 ns.

On to `CCCCn1c(-c2ccc(-c3nnc(-c4ccc5ccccc5c4)o3)cc2)nc(-c2ccccc2)c1-c1ccccc1`, for which the fluorescence lifetime (in ClCCl) turned out to be 1.74 ns.

As to `CCCCCCCCC1(CCCCCCCC)c2ccccc2-c2ccc(-c3nnc(-c4ccc(-n5c6ccc(C(C)(C)C)cc6c6cc(C(C)(C)C)ccc65)cc4)o3)cc21`, the fluorescence lifetime (in Cc1ccccc1) came to 1.7 ns.

In the case of `N#C/C(=C\c1ccc(C#N)cc1)c1nc(-c2ccc(Cl)cc2)c(-c2ccccc2)s1`, the fluorescence lifetime (in CC#N) is 2.48 ns.

As for `CN(C)c1ccc(C#Cc2ccc(C#Cc3ccc(C#Cc4ccccc4C#N)cc3C#N)cc2C#N)cc1`, the fluorescence lifetime worked out at 1.7 ns (in C1CCOC1); 1.66 ns (in CC#N); 1.86 ns (in CN(C)C=O); 1.78 ns (in ClC(Cl)Cl); 1.74 ns (in c1ccccc1).

For the compound `c1ccc(-c2nc(-c3nc(-c4ccccc4)c(-c4ccccc4)o3)oc2-c2ccccc2)cc1`, for the setting “in C1COCCO1”, the fluorescence lifetime amounted to 1.22 ns.

As to `CC1=CC2=Nc3nc(C)[n+](C)cc3CN2C=C1`, the fluorescence lifetime amounted to 5.45 ns (in CC#N), 5.31 ns (in CCO) and 5.23 ns (in O).

As to `CCCCCCN1C(=O)c2cccc3cc(/N=C\c4cnc5ccccc5c4)cc(c23)C1=O`, for the setting “in ClC(Cl)Cl”, the fluorescence lifetime was 13.7 ns.

`CC(C)(C)c1ccc2ccc3c(C(C)(C)C)ccc4ccc1c2c43` displayed a fluorescence lifetime (in CCCCCC) of 60.9 ns, a fluorescence lifetime (in CO) of 78.6 ns and a fluorescence lifetime (in ClCCl) of 43.1 ns.

`CC(C)(C)NC1=C2C=CC=[N+]2[B-](F)(F)n2cccc21`: the fluorescence lifetime amounted to 6.17 ns (in C1CCCCC1); 0.0272 ns (in CC(C)=O); 0.0307 ns (in CCO); 0.188 ns (in CCOC(C)=O); 0.019 ns (in CO); 0.125 ns (in OCC(F)(F)F).

Regarding `Cc1cc(-c2ccccc2C)cc(C)[o+]1`, the fluorescence lifetime by setting is: (in CC#N) 12.2 ns; (in ClCCl) 4.6 ns.

Where the note is “in ClCCl”, `CCCCCCCCCCCCN1C(=O)c2c(c3ccc4cc(-c5ccccc5)c(OC)cc4c3c3c2ccc2cc(-c4ccccc4)c(OC)cc23)C1=O` displayed a fluorescence lifetime of 6.16 ns.
